Data: patent US20250255867A1 (Kadmon Corporation, LLC, priority 2022, published 2025)

Conditions: Cohort 2 200 mg BID
Experimental: All responses were assessed by the investigators.
Reported Adverse Events. […] All-cause mortality data collected during the study were assessed for all enrolled participants. Disease progression related death was not reported as AE.
Number of Participants With Treatment-emergent Adverse Events (TEAEs), and Treatment-emergent Serious Adverse Events (TESAEs). […] TEAEs included both SAEs and non-SAEs. […] Analysis was performed on safety population which included all participants who received at least 1 dose of study medication.

CC(C)NC(=O)COc1cccc(-c2nc(Nc3ccc4[nH]ncc4c3)c3ccccc3n2)c1 [Belumosudil, 2-{3-[4-(1H-indazol-5-ylamino)-2-quinazolinyl]phenoxy}-N-(propan-2-yl) acetamide]
Conjunctivitis: Affected/At Risk (%): (6.25%)
Constipation: # Events: 1
Constipation: Affected/At Risk: 1/16
Constipation: Affected/At Risk (%): (6.25%)
Contrast media allergy: # Events: 2
Contrast media allergy: Affected/At Risk: 2/16
Contrast media allergy: Affected/At Risk (%): (12.5%)
Contusion: # Events: 2
Contusion: Affected/At Risk: 2/16
Contusion: Affected/At Risk (%): (12.5%)
Corneal abrasion: # Events: 0
Corneal abrasion: Affected/At Risk: 0/16
Corneal abrasion: Affected/At Risk (%): (0%)
Corneal infection: # Events: 2
Corneal infection: Affected/At Risk: 1/16
Corneal infection: Affected/At Risk (%): (6.25%)
Cough: # Events: 5
Cough: Affected/At Risk: 4/16
Cough: Affected/At Risk (%): (25%)
Decreased appetite: # Events: 2
Decreased appetite: Affected/At Risk: 2/16
Decreased appetite: Affected/At Risk (%): (12.5%)
Dehydration: # Events: 4
Dehydration: Affected/At Risk: 3/16
Dehydration: Affected/At Risk (%): (18.75%)
Depression: # Events: 4
Depression: Affected/At Risk: 4/16
Depression: Affected/At Risk (%): (25%)
Diarrhoea: # Events: 10
Diarrhoea: Affected/At Risk: 5/16
Diarrhoea: Affected/At Risk (%): (31.25%)
Dizziness: # Events: 4
Dizziness: Affected/At Risk: 1/16
Dizziness: Affected/At Risk (%): (6.25%)
Drug eruption: # Events: 1
Drug eruption: Affected/At Risk: 1/16
Drug eruption: Affected/At Risk (%): (6.25%)
Dry eye: # Events: 4
Dry eye: Affected/At Risk: 4/16
Dry eye: Affected/At Risk (%): (25%)
Dry skin: # Events: 0
Dry skin: Affected/At Risk: 0/16
Dry skin: Affected/At Risk (%): (0%)
Dyspepsia: # Events: 2
Dyspepsia: Affected/At Risk: 2/16
Dyspepsia: Affected/At Risk (%): (12.5%)
Dysphagia: # Events: 4
Dysphagia: Affected/At Risk: 3/16
Dysphagia: Affected/At Risk (%): (18.75%)
Dyspnoea exertional: # Events: 0
Dyspnoea exertional: Affected/At Risk: 0/16
Dyspnoea exertional: Affected/At Risk (%): (0%)
Dyspnoea: # Events: 7
Dyspnoea: Affected/At Risk: 5/16
Dyspnoea: Affected/At Risk (%): (31.25%)
Embolism: # Events: 0
Embolism: Affected/At Risk: 0/16
Embolism: Affected/At Risk (%): (0%)
Enamel anomaly: # Events: 1
Enamel anomaly: Affected/At Risk: 1/16
Enamel anomaly: Affected/At Risk (%): (6.25%)
Epidural lipomatosis: # Events: 0
Epidural lipomatosis: Affected/At Risk: 0/16
Epidural lipomatosis: Affected/At Risk (%): (0%)
Epstein-Barr virus infection: # Events: 0
Epstein-Barr virus infection: Affected/At Risk: 0/16
Epstein-Barr virus infection: Affected/At Risk (%): (0%)
Erectile dysfunction: # Events: 0
Erectile dysfunction: Affected/At Risk: 0/16
Erectile dysfunction: Affected/At Risk (%): (0%)
Eye irritation: # Events: 0
Eye irritation: Affected/At Risk: 0/16
Eye irritation: Affected/At Risk (%): (0%)
Eye pain: # Events: 4
Eye pain: Affected/At Risk: 2/16
Eye pain: Affected/At Risk (%): (12.5%)
Eye pruritus: # Events: 1
Eye pruritus: Affected/At Risk: 1/16
Eye pruritus: Affected/At Risk (%): (6.25%)
Fall: # Events: 1
Fall: Affected/At Risk: 1/16
Fall: Affected/At Risk (%): (6.25%)
Fatigue: # Events: 7
Fatigue: Affected/At Risk: 3/16
Fatigue: Affected/At Risk (%): (18.75%)
Flatulence: # Events: 2
Flatulence: Affected/At Risk: 1/16
Flatulence: Affected/At Risk (%): (6.25%)
Flushing: # Events: 1
Flushing: Affected/At Risk: 1/16
Flushing: Affected/At Risk (%): (6.25%)
Fungal infection: # Events: 0
Fungal infection: Affected/At Risk: 0/16
Fungal infection: Affected/At Risk (%): (0%)
Gamma-glutamyltransferase increased: # Events: 4
Gamma-glutamyltransferase increased: Affected/At Risk: 4/16
Gamma-glutamyltransferase increased: Affected/At Risk (%): (25%)
Gastric ulcer: # Events: 1
Gastric ulcer: Affected/At Risk: 1/16
Gastric ulcer: Affected/At Risk (%): (6.25%)
Gastrooesophageal reflux disease: # Events: 1
Gastrooesophageal reflux disease: Affected/At Risk: 1/16
Gastrooesophageal reflux disease: Affected/At Risk (%): (6.25%)
Generalised oedema: # Events: 0
Generalised oedema: Affected/At Risk: 0/16
Generalised oedema: Affected/At Risk (%): (0%)
Genital infection fungal: # Events: 1
Genital infection fungal: Affected/At Risk: 1/16
Genital infection fungal: Affected/At Risk (%): (6.25%)
Glaucoma: # Events: 1
Glaucoma: Affected/At Risk: 1/16
Glaucoma: Affected/At Risk (%): (6.25%)
Glucose urine present: # Events: 0
Glucose urine present: Affected/At Risk: 0/16
Glucose urine present: Affected/At Risk (%): (0%)
Graft versus host disease in gastrointestinal tract: # Events: 0
Graft versus host disease in gastrointestinal tract: Affected/At Risk: 0/16
Graft versus host disease in gastrointestinal tract: Affected/At Risk (%): (0%)
Gynaecomastia: # Events: 1
Gynaecomastia: Affected/At Risk: 1/16
Gynaecomastia: Affected/At Risk (%): (6.25%)
Haematuria: # Events: 1
Haematuria: Affected/At Risk: 1/16
Haematuria: Affected/At Risk (%): (6.25%)
Hair growth abnormal: # Events: 0
Hair growth abnormal: Affected/At Risk: 0/16
Hair growth abnormal: Affected/At Risk (%): (0%)
Headache: # Events: 3
Headache: Affected/At Risk: 3/16
Headache: Affected/At Risk (%): (18.75%)
Hodgkin's disease recurrent: # Events: 0
Hodgkin's disease recurrent: Affected/At Risk: 0/16
Hodgkin's disease recurrent: Affected/At Risk (%): (0%)
Hordeolum: # Events: 0
Hordeolum: Affected/At Risk: 0/16
Hordeolum: Affected/At Risk (%): (0%)
Hot flush: # Events: 0
Hot flush: Affected/At Risk: 0/16
Hot flush: Affected/At Risk (%): (0%)
Hyperglycemia: # Events: 0
Hyperglycemia: Affected/At Risk: 0/16
Hyperglycemia: Affected/At Risk (%): (0%)
Hyperhidrosis: # Events: 1
Hyperhidrosis: Affected/At Risk: 1/16
Hyperhidrosis: Affected/At Risk (%): (6.25%)
Hyperkalaemia: # Events: 2
Hyperkalaemia: Affected/At Risk: 2/16
Hyperkalaemia: Affected/At Risk (%): (12.5%)
Hypertension: # Events: 5
Hypertension: Affected/At Risk: 2/16
Hypertension: Affected/At Risk (%): (12.5%)
Hyperthyroidism: # Events: 1
Hyperthyroidism: Affected/At Risk: 1/16
Hyperthyroidism: Affected/At Risk (%): (6.25%)
Hypertriglyceridaemia: # Events: 1
Hypertriglyceridaemia: Affected/At Risk: 1/16
Hypertriglyceridaemia: Affected/At Risk (%): (6.25%)
Hyperuricaemia: # Events: 2
Hyperuricaemia: Affected/At Risk: 1/16
Hyperuricaemia: Affected/At Risk (%): (6.25%)
Hypoaesthesia: # Events: 0
Hypoaesthesia: Affected/At Risk: 0/16
Hypoaesthesia: Affected/At Risk (%): (0%)
Hypocalcaemia: # Events: 4
Hypocalcaemia: Affected/At Risk: 1/16
Hypocalcaemia: Affected/At Risk (%): (6.25%)
Hypogonadism: # Events: 0
Hypogonadism: Affected/At Risk: 0/16
Hypogonadism: Affected/At Risk (%): (0%)
Hypokalaemia: # Events: 3
Hypokalaemia: Affected/At Risk: 2/16
Hypokalaemia: Affected/At Risk (%): (12.5%)
Hypomagnesaemia: # Events: 1
Hypomagnesaemia: Affected/At Risk: 1/16
Hypomagnesaemia: Affected/At Risk (%): (6.25%)
Hyponatraemia: # Events: 0
Hyponatraemia: Affected/At Risk: 0/16
Hyponatraemia: Affected/At Risk (%): (0%)
Hypophosphataemia: # Events: 1
Hypophosphataemia: Affected/At Risk: 1/16
Hypophosphataemia: Affected/At Risk (%): (6.25%)
Hypothermia: # Events: 1
Hypothermia: Affected/At Risk: 1/16
Hypothermia: Affected/At Risk (%): (6.25%)
Hypothyroidism: # Events: 2
Hypothyroidism: Affected/At Risk: 1/16
Hypothyroidism: Affected/At Risk (%): (6.25%)
Hypoxia: # Events: 5
Hypoxia: Affected/At Risk: 2/16
Hypoxia: Affected/At Risk (%): (12.5%)
Impaired healing: # Events: 0
Impaired healing: Affected/At Risk: 0/16
Impaired healing: Affected/At Risk (%): (0%)
Influenza like illness: # Events: 2
Influenza like illness: Affected/At Risk: 1/16
Influenza like illness: Affected/At Risk (%): (6.25%)
Influenza: # Events: 2
Influenza: Affected/At Risk: 1/16
Influenza: Affected/At Risk (%): (6.25%)
Insomnia: # Events: 0
Insomnia: Affected/At Risk: 0/16
Insomnia: Affected/At Risk (%): (0%)
Irritability: # Events: 0
Irritability: Affected/At Risk: 0/16
Irritability: Affected/At Risk (%): (0%)
Joint range of motion decreased: # Events: 1
Joint range of motion decreased: Affected/At Risk: 1/16
Joint range of motion decreased: Affected/At Risk (%): (6.25%)
Lacrimation increased: # Events: 1
Lacrimation increased: Affected/At Risk: 1/16
Lacrimation increased: Affected/At Risk (%): (6.25%)
Leukaemia recurrent: # Events: 0
Leukaemia recurrent: Affected/At Risk: 0/16
Leukaemia recurrent: Affected/At Risk (%): (0%)
Leukocytosis: # Events: 0
Leukocytosis: Affected/At Risk: 0/16
Leukocytosis: Affected/At Risk (%): (0%)
Ligament sprain: # Events: 0
Ligament sprain: Affected/At Risk: 0/16
Ligament sprain: Affected/At Risk (%): (0%)
Limb injury: # Events: 0
Limb injury: Affected/At Risk: 0/16
Limb injury: Affected/At Risk (%): (0%)
Macular degeneration: # Events: 1
Macular degeneration: Affected/At Risk: 1/16
Macular degeneration: Affected/At Risk (%): (6.25%)
Migraine: # Events: 1
Migraine: Affected/At Risk: 1/16
Migraine: Affected/At Risk (%): (6.25%)
Muscle spasms: # Events: 0
Muscle spasms: Affected/At Risk: 0/16
Muscle spasms: Affected/At Risk (%): (0%)
Muscle spasticity: # Events: 0
Muscle spasticity: Affected/At Risk: 0/16
Muscle spasticity: Affected/At Risk (%): (0%)
Muscular weakness: # Events: 1
Muscular weakness: Affected/At Risk: 1/16
Muscular weakness: Affected/At Risk (%): (6.25%)
Musculoskeletal chest pain: # Events: 0
Musculoskeletal chest pain: Affected/At Risk: 0/16
Musculoskeletal chest pain: Affected/At Risk (%): (0%)
Myalgia: # Events: 1
Myalgia: Affected/At Risk: 1/16
Myalgia: Affected/At Risk (%): (6.25%)
Nail disorder: # Events: 0
Nail disorder: Affected/At Risk: 0/16
Nail disorder: Affected/At Risk (%): (0%)
Nausea: # Events: 6
Nausea: Affected/At Risk: 4/16
Nausea: Affected/At Risk (%): (25%)
Neck pain: # Events: 0
Neck pain: Affected/At Risk: 0/16
Neck pain: Affected/At Risk (%): (0%)
Nephrotic syndrome: # Events: 1
Nephrotic syndrome: Affected/At Risk: 1/16
Nephrotic syndrome: Affected/At Risk (%): (6.25%)
Neuropathy peripheral: # Events: 1
Neuropathy peripheral: Affected/At Risk: 1/16
Neuropathy peripheral: Affected/At Risk (%): (6.25%)
Neutrophil count decreased: # Events: 0
Neutrophil count decreased: Affected/At Risk: 0/16
Neutrophil count decreased: Affected/At Risk (%): (0%)
Nocturia: # Events: 0
Nocturia: Affected/At Risk: 0/16
Nocturia: Affected/At Risk (%): (0%)
Non-cardiac chest pain: # Events: 3
Non-cardiac chest pain: Affected/At Risk: 3/16
Non-cardiac chest pain: Affected/At Risk (%): (18.75%)
Obesity: # Events: 0
Obesity: Affected/At Risk: 0/16
Obesity: Affected/At Risk (%): (0%)
Oedema peripheral: # Events: 5
Oedema peripheral: Affected/At Risk: 4/16
Oedema peripheral: Affected/At Risk (%): (25%)
